Source: patent US20080045498A1, “[…] INHIBITORS” (Genelabs Technologies, Inc., priority 2006, published 2008)

system: HCV RNA dependent RNA polymerase; assay: HCV replicon assay (luciferase, Huh-lucubineo-ET cells); assay type: cell-based; settings: Hepatitis C virus; tested at 25 μM; ET (Huh-lucubineo-ET) replicon cell line; luciferase activity measured 48-72 hours after compound addition; relative to no compound control
Procedure: A cell line, ET (Huh-lucubineo-ET) was used for screening of compounds for inhibiting HCV RNA dependent RNA polymerase. The ET cell line was stably transfected with RNA transcripts harboring a I389luc-ubi-neo/NS3-3′/ET; replicon with firefly luciferase-ubiquitin-neomycin phosphotransferase fusion protein and EMCV-IRES driven NS3-5B polyprotein containing the cell culture adaptive mutations (E1202G; T1280I; K1846T) (Krieger at al, 2001 and unpublished). The ET cells were grown in DMEM (Dulbeco's Modified Eagle's Medium), supplemented with 10% fetal calf serum, 2 mM Glutamine, Penicillin (100 IU/mL)/Streptomycin (100 μg/mL), 1× nonessential amino acids, and 250 μg/mL G418 (“Geneticin”). Reagents are all available through Life Technologies (Bethesda, Md.). The cells were plated at 0.5−1.0×10^4 cells/well in the 96 well plates and incubated for 24 hrs before adding test compound. The compounds were added to the cells to achieve a final concentration of 0.1 nM to 50 μM and a final DMSO (dimethylsulfoxide) concentration of 0.5%. Luciferase activity was measured 48-72 hours later by adding a lysis buffer and the substrate (Catalog number Glo-lysis buffer E2661 and Bright-Glo luciferase system E2620 Promega, Madison, Wis.). Cells should not be too confluent during the assay. Percent inhibition of replication data is plotted relative to no compound control. Under the same condition, cytotoxicity of the compounds were determined using cell proliferation reagent, WST-1 (Roche, Germany). The compounds showing antiviral activities, but no significant cytotoxicities were chosen to determine EC50 and TC50 the effective concentration and toxic concentration at which 50% of the maximum inhibition is observed. For these determinations, a 10 point, 2-fold serial dilution for each compound was used, which spans a concentration range of 1000 fold. EC50 and similarly TC50 values were calculated by fitting % inhibition at each concentration to the following equation: % inhibition=100%/[(EC50/[I])b+1] where b is Hill's coefficient.

SMILES	inhibition at 25 µM
O=C(O)c1ccc2c(C3CCCCC3)c3n(c2c1)CCCCn1c-3cc2ccc(O)cc21 [Compound 236]	100%
COc1ccc2cc3n(c2c1)CCCCn1c-3c(C2CCCCC2)c2ccc(C(=O)O)cc21 [Compound 235]	99%
O=C(O)c1ccc2c(C3CCCCC3)c3n(c2c1)CCCCCn1c-3cc2ccccc21 [Compound 229]	86%
O=C(O)c1ccc2c(C3CCCCC3)c3n(c2c1)CCCCn1c-3cc2ccccc21 [Compound 228]	97%
O=C(O)c1ccc2c(C3CCCCC3)c3n(c2c1)CCCCn1c-3nc2ccccc21 [Compound 226]	23%
O=C(O)c1ccc2c(C3CCCCC3)c3n(c2c1)CCCCn1c-3cc2cc(O)ccc21 [Compound 234]	99%
O=C(O)c1ccc2c(C3CCCCC3)c3n(c2c1)CCCCn1c-3cc2c(OCc3ccccc3)cccc21 [Compound 230]	75%
COc1ccc2c(c1)cc1n2CCCCn2c-1c(C1CCCCC1)c1ccc(C(=O)O)cc12 [Compound 233]	96%
O=C(O)c1ccc2c(C3CCCCC3)c3n(c2c1)CCCCn1c-3cc2ccc(OCc3ccccc3)cc21 [Compound 232]	91%
O=C(O)c1ccc2c(C3CCCCC3)c3n(c2c1)CCCn1c-3nc2ccccc21 [Compound 225]	7%
O=C(O)c1ccc2c(C3CCCCC3)c3n(c2c1)CCCCn1c-3cc2cc(OCc3ccccc3)ccc21 [Compound 231]	96%
Cc1nc(C)c(-c2ccc3c4c(ccc3n2)-c2c(C3CCCCC3)c3ccc(C(=O)O)cc3n2CC(=O)N4)s1 [Compound 237]	100%
O=C(O)c1ccc2c(C3CCCCC3)c3n(c2c1)CCCn1c-3cc2ccccc21 [Compound 227]	94%
